In brackets after ≈: the same amount, converted by molar mass.

For 103 compounds, logP and solubility results are on record in the OPERA property sets (Mansouri et al. 2018).

Conditions in the first data set: not given
On to `Clc1ccc(Oc2cccc(Cl)c2)cc1`, for which the logP was determined as 5.13. On the same count and under the same terms, as for `Clc1ccc(Oc2c(Cl)cc(Cl)c(Cl)c2Cl)cc1`, the figure is 6.47. The same measure, in the same setting: with `Clc1cc(Cl)c(Oc2ccccc2Cl)cc1Cl` the figure was 5.97. The compound `Clc1ccc(Oc2ccc(Cl)cc2)cc1` came in with a logP of 5.25. Same read-out and setting: with `Clc1cc(Cl)c(Oc2ccccc2)c(Cl)c1Cl` the figure was 5.88; with `Clc1ccc(Oc2c(Cl)ccc(Cl)c2Cl)c(Cl)c1Cl`, 6.47.

`Clc1cccc(Oc2ccc(Cl)c(Cl)c2Cl)c1Cl`: the logP worked out at 6.3. This logP and that of the compound before are within 0.2 log units of each other.

The compound `Clc1ccc(Oc2ccc(Cl)c(Cl)c2Cl)cc1Cl` displayed a logP of 6.51.

`Clc1cc(Cl)cc(Oc2ccc(Cl)c(Cl)c2)c1` yielded a logP of 6.22. Still for that read-out and setting: with `Clc1cc(Cl)cc(Oc2ccc(Cl)cc2Cl)c1` the figure was 6.13.

Turning to `Clc1cc(Oc2cc(Cl)c(Cl)c(Cl)c2Cl)cc(Cl)c1Cl`, the logP stood at 7.55. The compound `Clc1cc(Oc2c(Cl)c(Cl)c(Cl)c(Cl)c2Cl)c(Cl)c(Cl)c1Cl` gave a logP of 8.07. In the case of `Clc1cc(Cl)c(Oc2cccc(Cl)c2Cl)cc1Cl`, the log partition coefficient (logP) was 6.22. On the same count and under the same terms, with `Clc1ccc(Oc2cc(Cl)c(Cl)c(Cl)c2Cl)c(Cl)c1` the figure was 6.72; with `Clc1ccc(Oc2c(Cl)c(Cl)cc(Cl)c2Cl)c(Cl)c1Cl`, 7.14; with `Clc1ccc(Oc2cc(Cl)c(Cl)c(Cl)c2)cc1`, 6.3. Still for that read-out and setting: with `Clc1ccc(Oc2ccccc2Cl)cc1Cl` the figure was 5.5. `Clc1ccc(Oc2c(Cl)c(Cl)c(Cl)c(Cl)c2Cl)c(Cl)c1Cl` registered a logP of 7.84. The same measure, in the same setting: with `Clc1ccc(Oc2c(Cl)cccc2Cl)cc1Cl` the figure was 5.7; with `Clc1ccc(Oc2c(Cl)cc(Cl)cc2Cl)cc1`, 5.92; with `Clc1ccc(Oc2c(Cl)cc(Cl)cc2Cl)c(Cl)c1`, 6.11. Same read-out and setting: as for `Clc1ccc(Oc2c(Cl)cccc2Cl)cc1`, the figure is 5.3; as for `Clc1ccc(Cl)c(Oc2ccc(Cl)c(Cl)c2Cl)c1`, 6.51; as for `Clc1ccc(Oc2c(Cl)ccc(Cl)c2Cl)cc1Cl`, 6.31.

`Clc1ccc(Oc2c(Cl)c(Cl)c(Cl)c(Cl)c2Cl)cc1` showed a logP of 6.95.

In turn, `Clc1cc(Cl)c(Oc2ccc(Cl)c(Cl)c2Cl)cc1Cl` had a logP of 7.01. The same measure, in the same setting: as for `Clc1ccc(Oc2c(Cl)c(Cl)cc(Cl)c2Cl)cc1`, the figure is 6.41; as for `Clc1ccc(Oc2ccccc2)cc1Cl`, 4.99. Same read-out and setting: with `Clc1cc(Cl)c(Oc2cc(Cl)c(Cl)cc2Cl)c(Cl)c1` the figure was 6.49; with `Clc1ccc(Oc2cc(Cl)cc(Cl)c2)cc1`, 5.77. Still for that read-out and setting: with `Clc1cc(Cl)c(Cl)c(Oc2ccccc2)c1Cl` the figure was 5.82; with `Clc1ccc(Oc2cc(Cl)ccc2Cl)c(Cl)c1`, 5.78; with `Clc1ccc(Oc2ccc(Cl)c(Cl)c2)cc1`, 5.88. As for `Clc1cccc(Cl)c1Oc1ccccc1`, the logP was found to be 4.64.

`Clc1cc(Cl)c(Oc2c(Cl)c(Cl)c(Cl)c(Cl)c2Cl)cc1Cl` returned a logP of 7.81.

The compound `Clc1cc(Oc2cc(Cl)c(Cl)c(Cl)c2Cl)c(Cl)c(Cl)c1Cl` returned a logP of 7.78. The logP values of the last two compounds are within 0.2 log units of each other. Same read-out and setting: as for `Clc1cc(Cl)c(Oc2c(Cl)cccc2Cl)cc1Cl`, the figure is 5.98. In turn, `Clc1cccc(Oc2ccc(Cl)c(Cl)c2)c1` yielded a logP of 5.74.

`Clc1ccccc1Oc1ccc(Cl)c(Cl)c1Cl` gave a logP of 5.72. Take `Clc1cc(Cl)c(Oc2ccccc2)c(Cl)c1`: the logP was 5.32. In turn, `Clc1ccc(Oc2ccc(Cl)c(Cl)c2Cl)cc1` yielded a logP of 6.14. Still for that read-out and setting: as for `Clc1cc(Cl)c(Oc2cc(Cl)c(Cl)cc2Cl)cc1Cl`, the figure is 6.72. Same read-out and setting: with `Clc1ccc(Cl)c(Oc2ccccc2)c1Cl` the figure was 5.35; with `Clc1ccc(Cl)c(Oc2ccc(Cl)c(Cl)c2)c1`, 6.11; with `Clc1ccc(Oc2c(Cl)ccc(Cl)c2Cl)c(Cl)c1`, 6.06. Still for that read-out and setting: as for `Clc1ccc(Oc2c(Cl)c(Cl)cc(Cl)c2Cl)cc1Cl`, the figure is 6.78; as for `Clc1cccc(Oc2cc(Cl)c(Cl)cc2Cl)c1`, 6.14; as for `Clc1cc(Oc2c(Cl)ccc(Cl)c2Cl)cc(Cl)c1Cl`, 6.65. `Clc1ccc(Oc2cc(Cl)ccc2Cl)cc1` showed a logP of 5.66. The compound `Clc1cc(Cl)cc(Oc2ccccc2)c1` gave a logP of 5.21. Take `Clc1cc(Cl)c(Oc2cc(Cl)c(Cl)c(Cl)c2Cl)cc1Cl`: the logP is 7.46.

The compound `Clc1cc(Cl)c(Cl)c(Oc2ccc(Cl)c(Cl)c2)c1` yielded a logP of 6.52.

With `Clc1cc(Cl)c(Oc2cc(Cl)c(Cl)c(Cl)c2)cc1Cl`, the logP came to 7.11.

For the compound `Clc1ccc(Oc2cc(Cl)c(Cl)c(Cl)c2Cl)cc1`, the logP is 6.61.

`Clc1ccc(Oc2ccccc2Cl)cc1` came in with a logP of 5.03. Same read-out and setting: as for `Clc1ccc(Oc2cc(Cl)cc(Cl)c2Cl)cc1`, the figure is 6.01; as for `Clc1ccc(Oc2ccc(Cl)c(Cl)c2Cl)c(Cl)c1Cl`, 6.82.

Compound `Clc1ccc(Oc2ccc(Cl)cc2Cl)c(Cl)c1` gave a logP of 5.95. Consider `Clc1cccc(Oc2ccccc2)c1`, for which the logP worked out at 4.75. Still for that read-out and setting: with `Clc1cc(Cl)c(Oc2c(Cl)ccc(Cl)c2Cl)cc1Cl` the figure was 6.47.

`Clc1cc(Cl)c(Cl)c(Oc2cc(Cl)c(Cl)cc2Cl)c1` displayed a logP of 6.65. The same measure, in the same setting: as for `Clc1cc(Cl)c(Oc2c(Cl)c(Cl)cc(Cl)c2Cl)cc1Cl`, the figure is 7.13; as for `Clc1cc(Oc2c(Cl)c(Cl)cc(Cl)c2Cl)c(Cl)c(Cl)c1Cl`, 7.63; as for `Clc1ccc(Oc2cccc(Cl)c2Cl)c(Cl)c1`, 5.88. The same measure, in the same setting: as for `Clc1ccc(Oc2ccccc2)c(Cl)c1`, the figure is 4.93; as for `Clc1ccc(Oc2cccc(Cl)c2Cl)cc1`, 5.63.

In turn, `Clc1ccc(Oc2cc(Cl)c(Cl)cc2Cl)cc1Cl` showed a logP of 6.6.

Regarding `Clc1cc(Oc2ccccc2)cc(Cl)c1Cl`, the logP came to 5.7. Still for that read-out and setting: with `Clc1ccc(Cl)c(Oc2ccccc2)c1` the figure was 5.13. On the same count and under the same terms, with `Clc1ccc(Oc2c(Cl)c(Cl)c(Cl)c(Cl)c2Cl)c(Cl)c1` the figure was 7.31. The same measure, in the same setting: with `Clc1cccc(Oc2ccc(Cl)c(Cl)c2Cl)c1` the figure was 6.07; with `Clc1ccc(Oc2ccccc2Cl)c(Cl)c1`, 4.96; with `Clc1ccc(Oc2ccccc2)cc1`, 4.7. Regarding `Clc1cc(Cl)cc(Oc2ccc(Cl)c(Cl)c2Cl)c1`, the logP amounted to 6.58. The same measure, in the same setting: as for `Clc1ccc(Cl)c(Oc2cc(Cl)c(Cl)cc2Cl)c1`, the figure is 6.22. The same measure, in the same setting: as for `Clc1cccc(Oc2ccc(Cl)cc2Cl)c1`, the figure is 5.65; as for `Clc1ccc(Oc2cccc(Cl)c2Cl)cc1Cl`, 5.99; as for `Clc1ccc(Oc2cc(Cl)c(Cl)c(Cl)c2)cc1Cl`, 6.83. Still for that read-out and setting: with `Clc1ccc(Oc2cc(Cl)cc(Cl)c2Cl)c(Cl)c1` the figure was 6.54; with `Clc1ccc(Oc2c(Cl)c(Cl)c(Cl)c(Cl)c2Cl)cc1Cl`, 7.31; with `Clc1ccc(Oc2c(Cl)cccc2Cl)c(Cl)c1Cl`, 6.11.

`Clc1ccc(Oc2ccccc2)c(Cl)c1Cl` returned a logP of 5.55. Still for that read-out and setting: with `Clc1cc(Cl)c(Oc2ccc(Cl)c(Cl)c2)c(Cl)c1` the figure was 6.44; with `Clc1c(Cl)c(Cl)c(Oc2c(Cl)c(Cl)c(Cl)c(Cl)c2Cl)c(Cl)c1Cl`, 8.16.

`Clc1cc(Oc2ccc(Cl)c(Cl)c2Cl)cc(Cl)c1Cl` yielded a logP of 6.99.

Take `Clc1ccc(Oc2c(Cl)cc(Cl)c(Cl)c2Cl)c(Cl)c1`: the logP was 6.84. The logP values of the last two compounds are within 0.2 log units of each other. On the same count and under the same terms, as for `Clc1ccc(Oc2ccc(Cl)c(Cl)c2Cl)c(Cl)c1`, the figure is 6.28; as for `Clc1ccc(Oc2cc(Cl)c(Cl)c(Cl)c2Cl)cc1Cl`, 7.07.

The compound `Clc1ccc(Oc2cc(Cl)c(Cl)c(Cl)c2Cl)c(Cl)c1Cl` came in with a logP of 7.28.

The compound `Clc1cc(Cl)cc(Oc2cc(Cl)c(Cl)cc2Cl)c1` yielded a logP of 6.66. Same read-out and setting: as for `Clc1cc(Cl)c(Cl)c(Oc2ccccc2)c1`, the figure is 5.62. On to `Clc1ccc(Oc2ccc(Cl)c(Cl)c2)c(Cl)c1`, for which the logP was 6.13.

Compound `Clc1ccc(Oc2cc(Cl)c(Cl)cc2Cl)c(Cl)c1` had a logP of 6.38. The same measure, in the same setting: with `Clc1cc(Cl)c(Cl)c(Oc2cc(Cl)c(Cl)c(Cl)c2)c1` the figure was 7.01.

`Clc1ccccc1Oc1ccccc1` showed a logP of 4.45. The same measure, in the same setting: with `Clc1ccc(Oc2cc(Cl)c(Cl)c(Cl)c2)c(Cl)c1` the figure was 6.63. On the same count and under the same terms, with `Clc1ccc(Oc2ccc(Cl)c(Cl)c2)cc1Cl` the figure was 6.36; with `Clc1ccc(Oc2c(Cl)ccc(Cl)c2Cl)cc1`, 5.64. For the compound `Clc1cc(Oc2c(Cl)ccc(Cl)c2Cl)c(Cl)c(Cl)c1Cl`, the lipophilicity (logP) is 6.98. Same read-out and setting: with `Clc1cccc(Oc2ccccc2)c1Cl` the figure was 5. The same measure, in the same setting: with `Clc1ccc(Oc2cc(Cl)c(Cl)cc2Cl)cc1` the figure was 5.99; with `Clc1ccc(Oc2ccc(Cl)cc2Cl)cc1`, 5.53. Same read-out and setting: with `Clc1c(Cl)c(Cl)c(Oc2ccccc2)c(Cl)c1Cl` the figure was 6.37.

Staying with this data set, now noted: 25 °C.
`Clc1ccc(Oc2cccc(Cl)c2)cc1` came in with a solubility of 17 µM (≈ 4.06 µg/mL).

For the compound `Clc1ccc(Oc2ccccc2Cl)cc1Cl`, the solubility was 6.32 µM (≈ 1.73 µg/mL). The same measure, in the same setting: with `Clc1ccc(Oc2c(Cl)cccc2Cl)cc1` the figure was 1.23 µM (≈ 0.337 µg/mL); with `Clc1ccc(Oc2ccccc2)cc1Cl`, 19 µM (≈ 4.55 µg/mL). Still for that read-out and setting: with `Clc1ccc(Oc2cc(Cl)cc(Cl)c2)cc1` the figure was 3.02 µM (≈ 0.826 µg/mL). Same read-out and setting: as for `Clc1ccc(Oc2ccc(Cl)c(Cl)c2)cc1`, the figure is 2.19 µM (≈ 0.598 µg/mL); as for `Clc1cccc(Cl)c1Oc1ccccc1`, 8.7 µM (≈ 2.08 µg/mL).

In turn, `Clc1cccc(Oc2ccc(Cl)c(Cl)c2)c1` showed a solubility of 3.66 µM (≈ 1 µg/mL). On the same count and under the same terms, with `Clc1ccc(Oc2cc(Cl)ccc2Cl)cc1` the figure was 3.63 µM (≈ 0.993 µg/mL); with `Clc1cc(Cl)cc(Oc2ccccc2)c1`, 8.7 µM (≈ 2.08 µg/mL); with `Clc1ccc(Oc2ccccc2Cl)cc1`, 3.02 µM (≈ 0.722 µg/mL). `Clc1cccc(Oc2ccccc2)c1` yielded a solubility of 61.6 µM (≈ 12.6 µg/mL). Against the preceding compound, the solubility is about 20-fold higher. As to `Clc1ccc(Oc2ccccc2)c(Cl)c1`, the solubility worked out at 23.4 µM (≈ 5.6 µg/mL). `Clc1ccc(Oc2cccc(Cl)c2Cl)cc1` registered a solubility of 4.9 µM (≈ 1.34 µg/mL). In turn, `Clc1ccc(Cl)c(Oc2ccccc2)c1` showed a solubility of 10.7 µM (≈ 2.56 µg/mL). Still for that read-out and setting: with `Clc1ccc(Oc2ccccc2Cl)c(Cl)c1` the figure was 11.2 µM (≈ 3.07 µg/mL); with `Clc1cccc(Oc2ccc(Cl)cc2Cl)c1`, 3.62 µM (≈ 0.99 µg/mL). Still for that read-out and setting: as for `Clc1cc(Cl)c(Cl)c(Oc2ccccc2)c1`, the figure is 6.47 µM (≈ 1.77 µg/mL); as for `Clc1ccccc1Oc1ccccc1`, 16.6 µM (≈ 3.4 µg/mL); as for `Clc1ccc(Oc2ccc(Cl)cc2Cl)cc1`, 0.603 µM (≈ 0.165 µg/mL).
